According to patent US20130079370A1, “Method for the Inhibition of Deubiquitinating Activity” (priority 2011, published 2013):

Columns and labels:
HCT116 cells = type: cell-based; conditions: human
Text: These findings indicate that high molecular weight ubiquitin substrate complexes accumulating as a result of DUB inhibition can generate strong cytotoxicity that is insensitive to Bcl-2 over-expression. [table]

[1] = system: isogenic clones of HCT116 colon cancer cells; conditions: literature refs (11, 12); cited from earlier work

Structure (SMILES): CC(C)C[C@H](NC(=O)[C@H](Cc1ccccc1)NC(=O)c1cnccn1)B(O)O [bortezomib, reference compound]
- Fold induction DNAJB1 (Hsp40B1) (HCT116 cells): 5 fold
- Fold induction HSPA1B (HCT116 cells): 12 fold
- Fold induction HSPA6 (Hsp70B′) (HCT116 cells): 60 fold
- sensitivity of apoptosis induction to apoptosis regulators [1]: sensitive to the status of the p53 tumor suppressor and over-expression of the anti-apoptotic Bcl-2 oncoprotein
